Earlier results as cited in patent EP0642530B1, “DERIVATIVES OF DOLASTATIN” (BASF Aktiengesellschaft, priority 1992, dated 1993).

Settings: background statement, no method given

## Dolastatin-10
  stability to acid: unstable to acid
